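Method: 48-hour compound exposure of cells in 96-well plates, five concentrations, linear interpolation of endpoints. GI50 marks 50% less growth. TGI is the concentration that stops growth completely.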
Columns and labels:
Assay in all cases: NCI tumour cell line growth inhibition, 48 h
SF-539 CNS = tested on: SF-539 CNS
CAKI-1 renal = tested on: CAKI-1 renal
RXF 393 renal = tested on: RXF 393 renal
OVCAR-3 ovarian = tested on: OVCAR-3 ovarian
NCI-H23 lung = tested on: NCI-H23 lung
OVCAR-5 ovarian = tested on: OVCAR-5 ovarian
HOP-92 NSCLC = tested on: HOP-92 NSCLC
SNB-75 CNS = tested on: SNB-75 CNS
SK-MEL-28 melanoma = tested on: SK-MEL-28 melanoma
M14 melanoma = tested on: M14 melanoma

| SMILES | GI50 (SF-539 CNS) [nM] | TGI (SF-539 CNS) [µM] | GI50 (CAKI-1 renal) [µM] | TGI (CAKI-1 renal) [µM] | GI50 (RXF 393 renal) [µM] | TGI (RXF 393 renal) [µM] | GI50 (OVCAR-3 ovarian) [nM] | TGI (OVCAR-3 ovarian) [µM] | GI50 (NCI-H23 lung) [µM] | TGI (NCI-H23 lung) [µM] | GI50 (OVCAR-5 ovarian) [µM] | TGI (OVCAR-5 ovarian) [µM] | GI50 (HOP-92 NSCLC) [nM] | TGI (HOP-92 NSCLC) [µM] | GI50 (SNB-75 CNS) [µM] | TGI (SNB-75 CNS) [µM] | GI50 (SK-MEL-28 melanoma) [µM] | TGI (SK-MEL-28 melanoma) [µM] | GI50 (M14 melanoma) [µM] | TGI (M14 melanoma) [µM] |
| --- | --- | --- | --- | --- | --- | --- | --- | --- | --- | --- | --- | --- | --- | --- | --- | --- | --- | --- | --- | --- |
| COc1cc(C2=C(c3cn(C)c4ccccc34)COC2=O)cc(OC)c1OC | 106 | 0.932 | 0.0531 | 3.42 | 0.133 | 0.555 | 36.4 | 0.437 | 0.233 | 3.04 | 0.479 | > 100 | 249 | 4.91 | 0.0438 | 0.522 | 0.754 | 29.8 | 0.0349 | 1.17 |
| COc1cc2ncn(-c3cc(OCCc4ccccc4)c(C(N)=O)s3)c2cc1OC | > 25000 | > 25 | > 25 | > 25 | 9.53 | > 25 | > 25000 | > 25 | > 25 | > 25 | > 25 | > 25 | 19600 | > 25 | > 25 | > 25 | > 25 | > 25 | > 25 | > 25 |
| O=C(Nc1ccc(Br)cc1)c1ccc(Cl)c(Cl)c1 | 4010 | > 100 | 1.51 | 4.58 | > 28 | > 100 | 2480 | 7.18 | 2.32 | 7.32 | 3.9 | > 100 | 341 | 5.1 | 3.2 | > 31 | 3.93 | > 100 | 3.76 | > 100 |
| CCC(C)(C)c1ccc(OCCCCCCN2CCNCC2)cc1 | 1850 | 3.65 | 2.26 | 7.09 | 1.47 | 2.92 | 2730 | 7.86 | 2.85 | 8.36 | 2.11 | 5.39 | 1210 | 6.82 | 1.46 | 3.51 | 1.74 | 3.77 | 1.92 | 4.17 |
| O=C(Nc1ccc(CO)cc1)c1coc2ccccc2c1=O | > 100000 | > 100 | > 100 | > 100 | > 100 | > 100 | > 100000 | > 100 | > 100 | > 100 | > 100 | > 100 | 29400 | > 100 | > 100 | > 100 | > 100 | > 100 | > 100 | > 100 |
| N#CC(=NCCO)C1=C(O)c2ccccc2C1=O |  | > 100 |  | > 100 |  | > 100 |  | > 100 |  | > 100 |  | > 100 |  | > 100 |  | > 100 |  | > 100 |  | > 100 |
| Cc1cc(C2CC(O)C(CO)O2)cc2c(=O)[nH]c(N)nc12 (stereo not drawn) | > 100000 | > 100 | > 100 | > 100 | > 100 | > 100 | > 100000 | > 100 | > 100 | > 100 | > 100 | > 100 | > 100000 | > 100 | 81.3 | > 100 | > 100 | > 100 | > 100 | > 100 |
| Cc1cc(N/N=C/c2nc(-c3ccc(Br)cc3)oc2C)c2cc(Br)ccc2n1 | 1760 | 3.5 | 8.15 | 20.6 | 5 | 19.8 | 2080 | 4.25 | 6.25 | 22.8 | 10.7 | 22.5 | 2500 | 14.4 | 2.17 | 6.66 | 2.39 | 6.26 | 3.58 | 13.8 |
| [Au+].[Au+].[Au+].[c-]1nccn1Cc1ccccc1.[c-]1nccn1Cc1ccccc1.[c-]1nccn1Cc1ccccc1 | 2960 | 9.15 | 11.2 | 25.9 | 2.03 | 5.8 | 2330 | 5.27 | 4.97 | 30.7 | 27.8 | 61.9 | 2340 | 4.25 | 6.08 | 18.9 | 2.71 | 6.15 | 2.75 | 6.68 |
| CCn1c(CO)nn(-c2cc(O[C@@H](C)C(F)(F)F)c(C(=O)Nc3c(F)cccc3Cl)cc2F)c1=O | < 10 | > 100 | < 0.0148 | > 100 |  | > 100 | 30.4 | > 100 | < 0.0438 | > 100 | > 100 | > 100 | 17700 | > 100 |  | > 100 | > 24.4 | > 100 | < 0.0144 | > 100 |
| Cc1cc(I)cc(CN(C)CCCN2CCOCC2)c1O | 16700 | 39.4 | 29.4 | > 100 | 11.8 | 38.2 | > 100000 | > 100 | 72.3 | > 100 | 45.3 | > 100 | 15700 | 98.2 | 21 | 87.4 | 17.4 | 32.3 | 16 | 32.3 |
| O=C1c2ccc3c4ccccc4n(Cc4ccccc4)c3c2C(=O)N1c1ccccc1 |  | 31.1 |  | 25.1 |  | 26.7 |  | 11.9 |  | 17.6 |  | 33 |  | 26.9 |  | 27.7 |  | 31.3 |  | 27.9 |
| C=CCSS/C=C/CS(=O)CC=C (stereo not drawn) |  | 51.6 |  | > 62.7 |  | 55.6 |  | > 95.9 |  | > 100 |  | 98.8 |  | > 100 |  | > 100 |  | 49.9 |  | 44.1 |
